Values belong to the molecule of their own block, whether it stands above or below them.
Tests used:
Assay in all cases: cells
KYSE-70 cell line = assay type: functional, cell-based; details: Homo sapiens;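 also: cell viability assay read-out, with IC50 expressing suppression of KYSE-70 cell growth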
Description: SANGER: Inhibition of human KYSE-70 cell growth in a cell viability assay.

A253 cell line = assay type: functional, cell-based, Homo sapiens; details: Homo sapiens, A253;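 also: growth inhibition of A253 cells, read out with a cell viability assay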
Description: SANGER: Inhibition of human A253 cell growth in a cell viability assay.

KYSE-150 cell line = assay type: functional, cell-based; details: Homo sapiens;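 also: growth inhibition of human KYSE-150 cells, read out with a cell viability assay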
Description: SANGER: Inhibition of human KYSE-150 cell growth in a cell viability assay.

LCLC-103H cell line = assay type: functional, cell-based; details: Homo sapiens
Description: SANGER: Inhibition of human LCLC-103H cell growth in a cell viability assay.

LXF-289 cell line = assay type: functional, cell-based; details: Homo sapiens
Description: SANGER: Inhibition of human LXF-289 cell growth in a cell viability assay.

KYSE-520 cell line = assay type: functional, cell-based; details: Homo sapiens;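 also: growth inhibition of human KYSE-520 cells, read out with a viability assay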
Description: SANGER: Inhibition of human KYSE-520 cell growth in a cell viability assay.

KU812 cell line = assay type: functional, cell-based, Homo sapiens; details: Homo sapiens, KU812;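 also: growth inhibition of KU812 cells, read out with a cell viability assay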
Description: SANGER: Inhibition of human KU812 cell growth in a cell viability assay.

MHH-ES-1 = assay type: functional, cell-based; details: Homo sapiens;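 also: cell growth inhibition measured by a cell viability assay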
Description: SANGER: Inhibition of human MHH-ES-1 cell growth in a cell viability assay.

COLO-800 = assay type: functional, cell-based, Homo sapiens; details: Homo sapiens, COLO-800;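 also: growth inhibition of COLO-800 cells, read out with a cell viability assay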
Description: SANGER: Inhibition of human COLO-800 cell growth in a cell viability assay.

NB69 = assay type: functional, cell-based, Homo sapiens; details: Homo sapiens, NB69;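 also: growth inhibition of NB69 cells, determined by a cell viability assay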
Description: SANGER: Inhibition of human NB69 cell growth in a cell viability assay.

NB12 = assay type: functional, cell-based; details: Homo sapiens;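 also: growth inhibition of human NB12 cells, read out by a cell viability assay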
Description: SANGER: Inhibition of human NB12 cell growth in a cell viability assay.

IC50 (KYSE-70 cell line): > 2000 nM
IC50 (A253 cell line): 1260 nM
IC50 (KYSE-150 cell line): 727 nM
IC50 (LCLC-103H cell line): > 2000 nM
IC50 (LXF-289 cell line): > 2000 nM
IC50 (KYSE-520 cell line): 236 nM
IC50 (KU812 cell line): 203 nM
Structure (SMILES): O=C(NOC[C@H](O)CO)c1ccc(F)c(F)c1Nc1ccc(I)cc1F [MIRDAMETINIB]

IC50 (MHH-ES-1): 501 nM
IC50 (COLO-800): 632 nM
IC50 (NB69): 946 nM
Structure (SMILES): CNCc1ccc(-c2[nH]c3cc(F)cc4c3c2CCNC4=O)cc1 [RUCAPARIB]

IC50 (NB12): 1310 nM
Structure (SMILES): O=C1/C(=C/c2cccs2)CC/C1=C\c1cccs1

Reference: ChEMBL document CHEMBL1201861, “Genomics of Drug Sensitity in Cancer screening data, Wellcome Trust Sanger Institute”
